In US11471528B2, “Methods for using extracellular adenosine inhibitors and adenosine receptor inhibitors to enhance immune response and inflammation” (The Government of the United States of America as …, priority 2001, dated 2022):

Key:
[1] = system: activated macrophages and T cells; assay: Secretion of IL-12 and IFN-γ by activated macrophages and T cells in vitro (ELISA); assay type: cell-based; settings: FIG. 1B
[2] = system: IkB; assay: IkB phosphorylation in macrophages after CpG (Western blot); assay type: in vivo; settings: C57BL/6 mice, 5 nMol CpG i.v., CGS21680 2 mg/kg, macrophages after 20 minutes
Procedure: After 20 minutes, macrophages were isolated as described above, and subjected to Western blot analysis using Ab that recognize IkB and Ab can distinguish the phosphorylated form of IkB (IkB-P).

[3] = system: anti-TNP-specific immunoglobulins; assay: TNP-KLH vaccination, serum anti-TNP-specific immunoglobulins (ELISA); assay type: in vivo, mice; settings: for IgG2: day 7, co-injected with TNP-KLH; for serum levels of anti-TNP-specific IgG1: seven days, versus control
Procedure: The antigen was prepared for injection as follows. DNP-KLH (1.0 mg/ml, Biosearch Technologies, Inc. catalog no. T-5060-5) was prepared in PBS (e.g. dissolve 4.0 mg of purified DNP-KLH in PBS and raise volume to 4.0 ml). Complete Freund's Adjuvant (2.0 ml, CFA; Sigma F-5881) was vortexed and mixed with 2.0 ml of the TNP-KLH solution at 4° C. The CFA/KLH mixture was drawn into a 3-ml glass syringe with a 19-gauge needle. The syringe was attached to a double-ended locking hub connector or a plastic 3-way stopcock. An empty 2-ml glass syringe was attached to the other end and the mixture forced back and forth from one end to the other repeatedly. When the mixture was white and homogeneous, the connector or stopcock was disconnected, a 25 gauge needle attached, and tested for emulsion by placing a drop on the surface of 50 ml of cold water in a 100-ml beaker. The drop should hold together; if not, repeat mixing. […] Samples of blood were obtained by retro-orbital bleeding at 7, 14, and 21 days after TNP-KLH and theophylline injection. Serum levels of anti-TNP-specific IgG1, IgG2a, IgG2b, IgG3, and IgM were estimated using an ELISA kit (Sigma) according to the manufacturer's instructions.

[4] = system: CMS4 tumor cells; assay: CMS4 lung tumors with antigen-specific CTL immunotherapy; assay type: in vivo; settings: BALB/c mice, CMS4 i.v., CTL on day 10; ZM241385 10 mg/kg/day i.p. or caffeine 0.1% w/v in drinking water; FIGS. 12A-C
From the text: BALB/c mice were inoculated i.v. with CMS4 tumor cells (Methylcholanthrene-induced sarcoma, 2.5×10^5 cells) on day zero to induce the formation of lung tumors. […] The lung tumors were subsequently examined on days 17, day 18 and day 24, by sacrificing the mice and evaluating their lungs for the number and size of metastasis by visual inspection.

[5] = system: NF-kB-regulated pro-inflammatory cytokines (TNFα, IL-12p40); assay: Cytokine mRNA in spleen of CpG-activated mice (RNase protection assay); assay type: in vivo; settings: C57BL/6 mice, 10 mg/kg i.p. 15 minutes before CpG, FIGS. 8A and 8B
Procedure: Mutant (A2aR^−/−) or wild-type mice were injected (i.p.) with 20 nmol CpG oligonucleotide (5′-T*C*[…]*A*T*G*C*T-3′, asterisk means phosphorothioate. SEQ ID NO. 1). This toll-receptor activating CpG DNA preparation stimulates the immune system. After one hour, mRNA was extracted from spleenocytes and analyzed for cytokine gene expression using an RNase protection assay with commercial templates (mCK-2b and mCK-3b, Pharmingen, San Diego, Calif.).

[6] = system: B16 melanoma cells; assay: B16 melanoma tumor growth; assay type: in vivo, mice; settings: daily i.p., ZM241385 0.2 mg/mouse, caffeine 0.4 mg/mouse, start 28 days after tumor cells; FIG. 14
From the text: […] (immunocompromised nude mice; or immunocompetent C57BL/6 mice) were inoculated subcutaneously with B16 melanoma cells (American Type Culture Collection, Manassas, Va.), or B16-H2-Kd transfected tumor cells (increases the immunogenicity of the cells) on day zero to induce the formation of melanomas. The treatment with adenosine receptor antagonists started 28 days after injection of tumor cells, when the tumor reached 7-9 mm in diameter.
[…]. The delay in tumor growth was greater in immunocompetent C57BL/6 mice, and less so in immunocompromised nude mice. However, as the tumor increases in size, both antagonists slow down tumor growth even in immunocompromised animals. […] In addition, adenosine receptor antagonists appear to improve both anti-tumor immunity and preventing or decreasing angiogenesis.

[7] = co-injected with TNP-KLH, about 1 mg/kg

CCNC(=O)[C@H]1O[C@@H](n2cnc3c(N)nc(NCCc4ccc(CCC(=O)O)cc4)nc32)[C@H](O)[C@@H]1O [CGS21680]
secretion of IFN-γ [1]: inhibited secretion
secretion of IL-12 [1]: inhibited secretion
phosphorylation of IkB [2]: decreased or inhibited

O=C(Cc1ccccc1)Nc1nc2ccc(Cl)cc2c2nc(-c3ccco3)nn12 [MRS1220]
IgG2 [3]: improved
serum levels of anti-TNP-specific IgG1 [3, 7]: markedly increased

Nc1nc(NCCc2ccc(O)cc2)nc2nc(-c3ccco3)nn12 [ZM241385]
number of metastatic nodules in the lung [4]: decrease in the number of metastatic nodules
mRNA expression of NF-kB-regulated pro-inflammatory cytokines [5]: higher expression of NF-kB-regulated pro-inflammatory cytokines
tumor growth [6]: tumor retardation that became significant after 3-7 days of treatment
IgG2 [3]: improved
serum levels of anti-TNP-specific IgG1 [3, 7]: markedly increased

Cn1c(=O)c2[nH]cnc2n(C)c1=O [theophylline]
serum levels of anti-TNP-specific IgG1 ([3]; co-injected i.p. with TNP-KLH, FIG. 15): markedly increased
serum levels of anti-TNP-specific IgG1 ([3]; co-injected subcutaneously with TNP-KLH): improvement of antibody production
serum levels of anti-TNP-specific IgG1 ([3]; co-injected subcutaneously with TNP-KLH, listed as theophyllin): markedly increased
